Reference: patent US20220031797A1, “PHARMACEUTICAL COMPOSITIONS CONTAINING HYALURONIC ACID AND CARNOSINE AND RELATIVE USE” (FIDIA FARMACEUTICI S.P.A., priority 2017, published 2022)

Tested on: Monosodium Iodoacetate (MIA) Osteoarthritis in Rats
Experiment: MIA-induced osteoarthritis in rats, oral treatment, histological evaluation (modified Mankin score)
Type: in vivo
Details: oral every 24 hours day 3-20, conjugate of Example 2 (35% mol/mol) 88.5 mg/kg, mixture 16.2 mg/kg carnosine + 72.3 mg/kg HA, naproxen 10 mg/kg, day 21, versus MIA-control, FIG. 7
Method: OA was induced in the posterior knee joints of the rats being tested, by the intra-articular injection of MIA: 25 μl of saline containing 1 mg/kg of MIA were injected into the joint (knee) of the right paw of each animal (under treatment) through the infrapatal ligament, whereas the left joint received an equal volume of saline 0.9% (Sagar D R et al, Ann. Rheum. Dis., 2013, 73: 1558-1565).
Male Sprague-Dawley rats, of about 230 g each, were used, 20 rats per group.
Group 1: MIA-control: the animals were treated by MIA induction and subsequently with distilled water administered orally every 24 hours from the 3rd day after MIA until the 20th day, end of the experimentation.
Group 2: MIA+HA/carnosine conjugate: the animals were treated by MIA induction and subsequently with the above-mentioned conjugate every 24 hours from the 3rd day after MIA until the 20th day. The conjugate used for the experimentation was prepared according to Example 2, it was then derivatized at 35% mol/mol, the dose, administered orally, was equal to 88.5 mg/kg of conjugate (16.2 mg of carnosine and 72.3 mg of HA).
Group 3: MIA+HA/carnosine mixture: the animals were treated by MIA induction and subsequently with HA/carnosine every 24 hours starting from the 3rd day after MIA up to the 20th day. […]

COc1ccc2cc([C@H](C)C(=O)O)ccc2c1 [naproxen]
Histological evaluation (modified Mankin Histological score 0-12; histological damage and cartilage degeneration): totally comparable to the effect elicited by naproxen
